Source: the NIST ThermoML archive (doi:10.1016/j.jct.2011.06.001)

Columns and labels:
[1] = Crystal; DTA
[2] = Molar enthalpy of transition or fusion; details: Crystal; DSC
[3] = molar heat capacity at constant pressure; details: 101.33 kPa, Small sample (50 mg) DSC
[4] = molar enthalpy of vaporization or sublimation; details: 333.15 K, Crystal

[CH]1C=CC=C1.[CH]1C=CC=C1.[Fe] [ferrocene]
Details | Molar enthalpy of transition or fusion [kcal/mol] | Normal melting temperature [°C]
[1] | – | 175
[2] | 4.25 | –

molar heat capacity at constant pressure [J/K/mol], [3]
Details | Crystal | Gas
293 K | 186.22 | 163.5
294 K | 186.78 | 164.13
295 K | 187.52 | 164.76
296 K | 188.08 | 165.39
297 K | 189.01 | 166.02
298 K | 189.75 | 166.65
298.15 K | 189.75 | –
299 K | 190.5 | 167.27
300 K | 191.24 | 167.9
301 K | 191.8 | 168.53
302 K | 192.36 | 169.15
303 K | 193.1 | 169.78
304 K | 193.84 | 170.4
305 K | 194.4 | 171.03
306 K | 195.15 | 171.65
307 K | 195.7 | 172.27
308 K | 196.45 | 172.9
309 K | 197.19 | 173.52
310 K | 197.94 | 174.14
311 K | 198.31 | 174.76
312 K | 199.24 | 175.38
313 K | 199.8 | 176
314 K | 200.54 | 176.61
315 K | 201.29 | 177.23
316 K | 202.03 | 177.85
317 K | 202.77 | 178.46
318 K | 203.33 | 179.07
319 K | 204.08 | 179.69
320 K | 204.45 | 180.3
321 K | 205.38 | 180.91
322 K | 205.94 | 181.52
323 K | 207.05 | 182.13
324 K | 207.61 | 182.74
325 K | 208.35 | 183.35
326 K | 209.1 | 183.96
327 K | 209.66 | 184.56
328 K | 210.22 | 185.17
329 K | 210.77 | 185.77
330 K | 211.33 | 186.37
331 K | 212.26 | 186.98
332 K | 213.01 | 187.58
333 K | 213.75 | 188.18
334 K | 214.49 | 188.78
335 K | 215.24 | 189.37
336 K | 215.8 | 189.97
337 K | 216.54 | 190.57
338 K | 217.28 | 191.16
339 K | 218.21 | 191.76
340 K | 218.77 | 192.35
341 K | 219.7 | 192.94
342 K | 220.26 | 193.53
343 K | 221.01 | 194.12
344 K | 221.56 | 194.71
345 K | 222.49 | 195.3
346 K | 223.24 | 195.88
347 K | 223.8 | 196.47
348 K | 223.98 | 197.05
349 K | 225.1 | 197.64
350 K | 226.77 | 198.22
351 K | 226.59 | 198.8
352 K | 226.96 | 199.38
353 K | 227.7 | 199.96

[4]
Details | molar enthalpy [kcal/mol]
DSC | 17.3
Static calorimetry | 17.5

[Ni+2].c1cc[cH-]c1.c1cc[cH-]c1 [nickelocene]
Details | Molar enthalpy of transition or fusion [kcal/mol] | Normal melting temperature [°C]
[1] | – | 177.7
[2] | 4.54 | –

molar heat capacity at constant pressure [J/K/mol], [3]
Details | Crystal | Gas
293 K | 199.08 | 171.05
294 K | 199.83 | 171.62
295 K | 200.59 | 172.19
296 K | 201.35 | 172.76
297 K | 202.1 | 173.33
298 K | 203.05 | 173.9
298.15 K | 203.23 | –
299 K | 203.8 | 174.47
300 K | 204.37 | 175.04
301 K | 205.31 | 175.6
302 K | 206.07 | 176.17
303 K | 206.63 | 176.74
304 K | 207.2 | 177.31
305 K | 208.15 | 177.88
306 K | 208.9 | 178.45
307 K | 209.66 | 179.02
308 K | 210.6 | 179.58
309 K | 211.36 | 180.15
310 K | 212.11 | 180.72
311 K | 212.68 | 181.29
312 K | 213.43 | 181.85
313 K | 214 | 182.42
314 K | 214.76 | 182.99
315 K | 215.51 | 183.55
316 K | 216.08 | 184.12
317 K | 216.83 | 184.68
318 K | 217.59 | 185.25
319 K | 218.35 | 185.81
320 K | 218.91 | 186.37
321 K | 219.67 | 186.94
322 K | 220.23 | 187.5
323 K | 221.37 | 188.06
324 K | 222.31 | 188.62
325 K | 223.07 | 189.19
326 K | 223.82 | 189.75
327 K | 224.58 | 190.31
328 K | 225.14 | 190.87
329 K | 225.71 | 191.43
330 K | 226.09 | 191.98
331 K | 226.84 | 192.54
332 K | 227.6 | 193.1
333 K | 228.17 | 193.66
334 K | 228.92 | 194.21
335 K | 229.49 | 194.77
336 K | 230.24 | 195.32
337 K | 230.62 | 195.88
338 K | 231.19 | 196.43
339 K | 231.76 | 196.98
340 K | 232.51 | 197.54
341 K | 233.08 | 198.09
342 K | 233.83 | 198.64
343 K | 234.21 | 199.19
344 K | 234.97 | 199.74
345 K | 235.53 | 200.29
346 K | 236.1 | 200.84
347 K | 236.67 | 201.38
348 K | 237.23 | 201.93
349 K | 237.99 | 202.48
350 K | 238.56 | 203.02
351 K | 238.93 | 203.56
352 K | 239.69 | 204.11
353 K | 240.07 | 204.65

[4]
Details | molar enthalpy [kcal/mol]
DSC | 17.1
Static calorimetry | 17.2
